“Also recorded” adds a separate entry of the source.

Experiment [1] relates to mESC lines E14 and R1. Description: Whole gene expression profiling (microarray) of mESC lines E14 and R1. It counts as cell-based, mouse. Conditions: APH plus inhibitor. The method, then:
The quality of total RNA was first assessed using an Agilent Bioanalyzer 2100 (Agilent Technologies, Palo Alto, Calif.). Biotin-labeled cDNA targets were synthesized starting from 150 ng of total RNA. Double stranded cDNA synthesis and related cRNA was performed with GeneChip® WT Plus Kit (Affymetrix, Santa Clara, Calif.). With the same kit was synthesized the sense strand cDNA before to be fragmented and labeled. […] Each eukaryotic GeneChip® probe array contains probe sets for several B. subtilis genes that are absent in the samples analyzed (lys, phe, thr, and dap). This Poly-A RNA Control Kit contains in vitro synthesized, polyadenylated transcripts for these B. subtilis genes that are pre-mixed at staggered concentrations to allow GeneChip® probe array users to assess the overall success of the assay.
Hybridization was performed using the GeneAtlas™ Hybridization, Wash and Stain Kit. […] Targets were diluted in hybridization buffer at a concentration of 0.05 μg/ul, denatured at 99° C. for 5 minutes, incubated at 45° C. for 5 minutes and centrifuged at 5,000 rpm for 1 minute. The Array Strip is then moved to a hybridization tray, which contains the hybridization cocktails. A single Gene 2.1 PEG Array Strip is hybridized with four different biotin-labeled targets. Hybridizations were performed for 20 hours at 48° C. in the GeneAtlas™ Hybridization Station. The Array Strips were washed and stained in the GeneAtlas™ Personal Fluidics Station. At the end of this procedure the array strips were placed into the imaging tray, which contains the Array Holding buffer.
The array strips were imaged using the GeneAtlas™ Imaging Station. Affymetrix GeneAtlas™ Command Console software was used to acquire the Array Strip images and […].
The CAMERA gene set enrichment p-values were calculated using the limma package and the camera function 30.
In the GSVA based enrichment analysis, we used the MsigDB gene sets, and transformed the individual gene expression values into gene set expression values with the GSVA package 32. We calculated the gene set differential expression as in the gene level differential expression analysis, only skipping the RMA normalization step.

The subject of experiment [2] is 2C-like genes (Zscan4, MuERV-L/MERVL, Dux) in ESCs (E14, R1). Description: qPCR for 2C-like specific genes in ESCs. The class given is cell-based, mouse. The settings on record: ESC lines E14 and R1; time and dosage-dependent. As for the experimental part:
(§1) All treatments including APH, HU, UV, ATRi, ATMi and Chk1i were added in to fresh ESC medium and the cells were kept in 37° C. and 3% 02 tension for overnight (16-17 hrs) unless mentioned in each particular result section. APH was used at various concentrations ranging from 0.3 uM to 6 uM that is mentioned in each experiment in order to induce mild to acute replication stress response. Similarly, HU was used at 0.1 mM-3 mM. ATMi (KU-55933) and ATRi (VE 822) were used at the concentration of 10 uM and 1 uM respectively. Moreover, Chk1i (UCN-01) at the concentration of 100 nM was used. UV radiation was performed at the dosage ranging from 2 to 10 J/m2. For induction of ETAA1-AAD expression, Dox was used at the concentration of 1 μg/mL for 48 hrs.
RNA was extracted using RNeasy mini kit (QIAGEN), quantified by NanoDrop spectrophotometer and cDNA was prepared from 2 μg total DNA-depleted RNA using SuperScript™ III reverse transcriptase kit (Invitrogen cat #18080-093) following manufacturer's instructions. qPCR assay performed based on standard protocol using 10× SsoFast™ EvaGreen® Supermix or later 1× LightCycler 480 SYBR Green I Master (Roche, 04707516001), 0.5 μM primer mix and 5 ng of cDNA. GAPDH was used as internal control to normalise the qPCR data following ΔΔCt method, 10 μM primer mix and a total amount of cDNA corresponding to 5 ng of starting RNA for each reaction.

Experiment [3] has as its system pZscan4-Emerald ESCs. Description: FACS analysis of Zscan4-Emerald ESCs (Emerald-GFP positive cells). The class given is cell-based, mouse. The method, then:
as §1
ESCs were fixed and permeabilized using Cytoperm/Cytofix kit (BD Biosciences), and subsequently stained for one hour at room temperature with Alexa Fluor® 647 anti-H2AX-Phosphorylated (Ser139) antibody (Biolegend) or P-CHK1-PE conjugated antibody (cell signaling 12268). Cells were washed and acquired on a FACS Calibur instrument or Attune NxT (Thermo Fisher Scientific). For Emerald-GFP acquisition, cells were trypsinized, collected and subsequently acquired without fixation. Cell cycle profiles were acquired after incubation with DAPI (4′,6-diamidino-2-phenylindole) overnight. For Caspase3 FACS analysis after fixation and permeabilization, Cleaved Caspase3 antibody were used for one hr at RT followed by washes and one hr incubation in donkey anti rabbit secondary antibody. […]
On the technique in general: In flow cytometry, cells or beads pass a laser one at a time.

The test system of experiment [4] is Zscan4. The settings on record: previous work; cited from earlier work.

As to `Cn1c(=O)c2c(ncn2C)n(C)c1=O` [Caffeine], the “two placenta-related gene categories upon ATR inhibition” value in experiment [1] is “robustly suppressed”.

On to `NC(=O)NO` [HU, hydroxyurea], for which the “expression of Zscan4 and MuERV-L (QPCR and FACS)” value in experiment [2] was “significantly upregulated”. Besides, in experiment [3] (RS inducing agents, dose-dependent, qPCR and FACS), the “number of Emerald-GFP positive (Em+) ESCs” value is reported as “significant increase”.

Take `O=c1cc(-c2cccc3c2Sc2ccccc2S3)oc(N2CCOCC2)c1` [KU-55933]: the “elevated expression of 2C-like specific genes (Zscan4, MERVL) upon APH and HU treatment” value in experiment [3] (inhibitor added under replication stress, flow cytometry and immunoblot, listed as ATM inhibitor) is on record as “could not alter”. In experiment [3] (normal culture condition, ATRi 1 uM, ATMi 10 uM), the “number of Zscan4-Emerald positive cells” value was “did not change; also recorded: did not significantly reduce”.

Take `COC(=O)Nc1nc2ccc(C(=O)c3cccs3)cc2[nH]1` [nocodazole]: the “Zscan4 expression upon G2/M arrest” value in experiment [4] is listed as “not sufficient to trigger Zscan4 expression”.

These data come from US20200131473A1, “METHOD OF GENERATING 2 CELL-LIKE STEM CELLS” (IFOM FONDAZIONE ISTITUTO FIRC DI ONCOLOGIA MOLECOLARE, priority 2017, published 2020).
